Assay results: the NIST ThermoML archive (doi:10.1016/j.jct.2011.07.003)
Several values for one entry are separate records, joined by “and”; a condition that tells them apart may be missing. Equal values may be shown once. ± gives the expanded uncertainty stated by the source.

Details: Calculated from knudsen effusion weight loss

SMILES	vapor or sublimation pressure (295.73 K, Crystal 2)	vapor or sublimation pressure (302.13 K, Crystal 2)	vapor or sublimation pressure (307.66 K, Crystal 2)	vapor or sublimation pressure (313.1 K, Crystal 2)	vapor or sublimation pressure (318.47 K, Crystal 2)	vapor or sublimation pressure (323 K, Crystal 2)	vapor or sublimation pressure (328.2 K, Crystal 2)	vapor or sublimation pressure (332.95 K, Crystal 2)	vapor or sublimation pressure (321.79 K, Crystal)	vapor or sublimation pressure (328.88 K, Crystal)	vapor or sublimation pressure (337.2 K, Crystal)	vapor or sublimation pressure (345.77 K, Crystal)	vapor or sublimation pressure (352.86 K, Crystal)	vapor or sublimation pressure (360.64 K, Crystal)
c1ccc2c(c1)ccc1ccccc12 [phenanthrene]	1.4e-05 ± 1e-06 kPa and 1.5e-05 ± 1e-06 kPa	3.2e-05 ± 2e-06 kPa and 3.1e-05 ± 2e-06 kPa	6.1e-05 ± 3e-06 kPa and 6.4e-05 ± 3e-06 kPa and 6.2e-05 ± 3e-06 kPa	0.000118 ± 6e-06 kPa and 0.000119 ± 6e-06 kPa	0.000208 ± 1e-05 kPa [middle of 6 runs]	0.000341 ± 1.7e-05 kPa [middle of 5 runs]	0.00059 ± 3e-05 kPa [middle of 6 runs]	0.000959 ± 4.8e-05 kPa [middle of 6 runs]						
c1ccc2cc3ccccc3cc2c1 [anthracene]									1.7e-05 ± 1e-06 kPa and 1.8e-05 ± 1e-06 kPa and 1.9e-05 ± 1e-06 kPa	3.9e-05 ± 2e-06 kPa and 3.7e-05 ± 2e-06 kPa and 4e-05 ± 2e-06 kPa	9.3e-05 ± 5e-06 kPa [middle of 7 runs]	0.000236 ± 1.2e-05 kPa [middle of 6 runs]	0.000473 ± 2.4e-05 kPa [middle of 6 runs]	0.000988 ± 4.9e-05 kPa [middle of 5 runs]
